In patent publication US6858748B1, “Treatment of colon cancer” (Research Foundation of the University of Central Florida, priority 2001, dated 2005):

Columns and labels:
[1] = tested on: human colon cancer cells (ATCC CCL220); assay: Cytotoxicity assay (MTS/PMS growth inhibition); type: cell-based; settings: approximately 48 hours with test compound, MTS/PMS readout, concentration not given
Protocol: The antitumor activity against human colon cancer cells of the novel compounds (as earlier reported) was realized by the following procedure which determines the inhibitory effect of test samples on the growth of human colon cancer cells (ATCC CCL220). The CCL220 cells are grown in RPMI 1640 media+10% Fetal bovine serum+1% Antibiotic/Antimycotic for approximately 48 hours at 37° C./5% CO2 in the presence of the test compound.
Growth/Non-Growth of the cells (e.g., cell density) is determined using Promega's MTS/PMS assay system. MTS (3-(4,5-dimethylthiazol-2-yl)-5-(3-carboxymethoxyphenyl)-2-(4-sulfophenyl)-2H-tetrazolium, inner salt) is an aqueous compound that is reduced to soluble formazan by the presence of NADH formed by dehydrogenases present within the CCL220 cells. The absorbance of the formazan can be measured at 490 nm and is directly proportional to the number of living cells present in the culture. PMS (Phenazine Methosulfate) is added an electron coupling reagent and greatly increases the rate of reduction. […]
In order to establish the accuracy of this assay a Positive Control consisting of 50 μM Methotrexate should not decrease the net absorbance to less than 90% of the Negative Control (CCL220 cells are somewhat resistant to methotrexate) is utilized.

[2] = tested on: white mice; assay: Animal toxicity bioassay (acute toxicity, intraperitoneal); type: in vivo; settings: 14 days observation, Litchfield and Wilkinson
Protocol: Acute toxicity was studied on white mice of both sexes with weight ranging between 18-26 grams under intraperitoneal injection of 2% solution of tested compound in starch (the compound was dissolved in starch slime and injected) on the basis of 0.1 ml of solution per 10 g of the animal weight Each dose was tested on the group of 6 animals that were observed during 14 days period. (This method was approved by the Pharmacology committee of Russian Ministry of Health and has been widely used since 1968.) Averaged lethal dose (LD50) of the compound was computed using results of experiments on 5-7 groups of animals using method of Litchfield and Wilkinson. (Belenkii M. L. “Elements of quantative determination of the pharmacological effect,” Leningrad, 1963, 71 pages).

[3] = tested on: Mice; settings: cited from earlier work
[4] = Solubility in organic solvents; type: physicochemical
[5] = Stability in solution; type: physicochemical; settings: decomposes quickly when solution is heated or stored for a long time, forming OF-12

What does the source list for `CCOc1ccc(C(Cl)=CC(=NN=C2c3ccccc3-c3ccccc32)C(=O)OC)cc1` [3F-19, 4-Chloro-4-(4-ethoxy-phenyl)-2-(fluoren-9-ylidene-hydrazono)-but-3-enoic acid methyl ester]?
percent activity against human colon cancer [1]: 100%; LD50 [2]: > 200 mg/kg

With `O=c1[nH]cc(F)c(=O)[nH]1` [5-FU, fluorouracil] as the compound, how does the “IPN-Mice LD50” value [3] read?
Its value is 230 mg/kg.

With `CCOc1ccc(C(=O)CC(O)(NN=C2c3ccccc3-c3ccccc32)C(=O)OC)cc1` (centres unmarked) [OF-13, 4-(4-Ethoxy-phenyl)-2-(N′-fluoren-9-ylidene-hydrazino)-2-hydroxy-4-oxo-butyric acid methyl ester] as the compound, how does the “percent activity against human colon cancer” value [1] read?
The value was 100%.

And the LD50 [2]?
The LD50 was greater than 1500 mg/kg.

What about the Solubility ([4]; DMSO, DMFA, dichloroethane, acetonitrile) of the same compound?
Its Solubility is “highly soluble”.

What about the Solubility ([4]; hexane) of the same compound?
The Solubility was “insoluble”.

And the Stability in solutions [5]?
The Stability in solutions was “not stable in solutions”.
